One assay relates to E.coli ATCC 11 775. Kind of assay: experimental intraperitoneal infection in mice, ED50 (survival). To be noted: Escherichia coli, ATCC 11 / ATCC 1175, sc, 168 h; female NMRI mice, i.p. infection, s.c. application, treated once, 7 days observation. Format: in vivo, Mäuse. The method, then:
(§1) Eine Reihe der erfindungsgemäßen Verbindungen wurde in vivo bei experimentellen Infektionen an Mäusen untersucht. Man verwendete als pathogene Bakterien E.coli ATCC 11 775 und Pseudomonas aeruginosa Walter. Es wurde eine intraperitoneale Infektion mit 0,2 ml einer 5%igen Mucinsuspension der Bakterien gesetzt. Dies entspricht etwa 2x10^6 Keime E.coli bzw. 8x10^5 Keime Pseudomonas/Maus. Weibliche Mäuse vom Stamm NMRI wurden in Gruppen von jeweils 10 Tieren aufgeteilt, zwei Gruppen blieben unbehandelt, die restlichen Gruppen wurden mit verschiedenen Dosen der jeweiligen erfindungsgemäßen Penicilline zur Bestimmung der ED50 (Dosis, bei der 50 % der Tiere überleben) behandelt. Bei der E.coli-Infektion wurde einmal therapiert. Bei der Pseudomonas-Infektion wurde dreimal behandelt.
(§2) Der Beobachtungszeitraum betrug in beiden Fällen 7 Tage. Die Ergebnisse dieser Teste mit repräsentativen Vertretern der erfindungsgemäßen Penicilline sind in der Tabelle 3 dargestellt.

Assay [1] deals with Pseudomonas aeruginosa Walter. The description is as above. The assay is classed as in vivo, Mäuse. As to conditions: sc, 168 h, female NMRI mice, i.p. infection, s.c. application, treated three times, 7 days observation, read-out: ED50 Pseud. aerug. Walter. The method, then:
as §1, §2

The test system of assay [2] is Enterobacter cloacae ATCC 13 047. Description: serial dilution test in microtiter system (bacteriostasis, MIC). To be noted: ATCC13, liquid medium, 18 to 20 h at 37°C, read-out: MHK-Werte Eb. cloacae 13 047. The assay is classed as cell-based. As for the experimental part:
(§3) Für die Untersuchungen wurde die Methode des Reihenverdünnungstestes im Mikrotitersystem angewandt. Die Prüfung der Substanzen auf Bakteriostase erfolgte in flüssigem Medium. Es wurde die Bakteriostasewirkung bei folgenden Konzentrationen untersucht.
(§4) Es wurde ein Nährboden folgender Zusammensetzung benutzt: 10 g Pepton, 8 g Fleischextrakt-Oxoid, 3 g Natriumschlorid, 2 g sek. Natriumphosphat werden mit dest. Wasser auf 1000 ml aufgefüllt (pH 7,2-7,4). Lediglich bei der Testung gegen Streptokokken wurde 1% Glucose hinzugefügt. Das Alter der Primärkulturen betrug etwa 20 Stunden. Die Einstellung der Keimsuspension erfolgte am Photometer (nach "Eppendorf") (Reagenzglas-Durchmesser 14 mm, Filter 546 nm) anhand der Trübung einer Bariumsulfat-Vergleichssuspension, die durch eine Bariumsulfat-Aufschwemmung erzeugt wurde, welche durch die Zugabe von 3,0 ml 1%ige Bariumchloridlösung in 97 ml 1%ige Schwefelsäure entstand. Nach der Einstellung wurden Streptococcus Aronson im Verhältnis 1:15 und die übrigen Testkeime im Verhältnis 1:1500 mit einer Kochsalzlösung weiter verdünnt.
(§5) 16 mg der jeweiligen Substanz wurden in 10 ml-Meßkolben eingewogen und mit dem Lösungsmittel bis zur Marke aufgefüllt. Die weitere Verdünnungsreihe wurde mit destilliertem Wasser oder dem jeweiligen Lösungsmittel hergestellt.
(§6) Die Vertiefungen der Mikrotiterplatten wurden mit 0,2 ml Nährmedium, 0,01 ml der entsprechenden Substanzverdünnung und mit einem Tropfen Keimsuspension (0,01 ml) beschickt und 18 bis 20 Stunden bei 37°C bebrütet. Eine Lösungsmittelkontrolle wurde stets mitgeführt.
(§7) Die Ablesung wurde makroskopisch vorgenommen, wobei die jeweilige Grenkonzentration (= niedrigste noch bakteriostatisch wirksame Konzentration) ermittelt wurde.
(§8) Als Testorganismen wurden benützt: - Staphylococcus aureus SG 511, Escherichia coli ATCC 11 775, Pseudomonas aeruginosa Hamburgensis und Walter, Serratia marcescens ATCC 13 880, Klebsiella pneumoniae ATCC 10 031 und BC 6, Proteus mirabilis Hamburgensis, Proteus rettgeri BC 7 und Enterobacter cloacae ATCC 13 047.
(§9) In der folgenden Tabelle 2 sind die ermittelten minimalen Hemmkonzentrationen (MIC) für typische Vertreter der erfindungsgemäßen Verbindungen aufgeführt, wobei sich die Ziffern auf die Penicilline der Tabelle 1 Seite 18 beziehen.

Assay [3] has as its system Escherichia coli ATCC 11 775. The assay is described as above. The assay is classed as cell-based. As to conditions: ATCC11, liquid medium, 18 to 20 h at 37°C, read-out: MHK-Werte E.coli ATCC 11 755. The method, then: as §3, §4, §5, §6, §7, §8, §9
Assay [4] concerns Klebsiella pneumoniae ATCC 10 031. Described as above. The assay is classed as cell-based. To be noted: ATCC10, liquid medium, 18 to 20 h at 37°C, read-out: MHK-Werte Kl. pneum. ATCC 10 031. As for the experimental part: as §3, §4, §5, §6, §7, §8, §9
The subject of assay [5] is Klebsiella pneumoniae BC 6. Described as above. Format: cell-based. To be noted: BC6, liquid medium, 18 to 20 h at 37°C, read-out: MHK-Werte Kl. pneum. BC 6. As for the experimental part: as §3, §4, §5, §6, §7, §8, §9
Assay [6] concerns Proteus mirabilis Hamburgensis. The description is as above. The assay is classed as cell-based. To be noted: liquid medium, 18 to 20 h at 37°C, read-out: MHK-Werte Prot. mir. Hbg. As for the experimental part: as §3, §4, §5, §6, §7, §8, §9
In another assay the test system is Proteus rettgeri BC 7. The description is as above. Format: cell-based. To be noted: Providencia rettgeri, BC7; liquid medium, 18 to 20 h at 37°C; read-out: MHK-Werte Prot. rettg. BC 7. As for the experimental part:
as §3, §4, §5, §6, §7, §8, §9

The subject of assay [7] is Pseudomonas aeruginosa Hamburgensis. The assay is described as above. Format: cell-based. As to conditions: liquid medium, 18 to 20 h at 37°C, read-out: MHK-Werte Pseud. aerug. Hbg. The method, then:
as §3, §4, §5, §6, §7, §8, §9

Assay [8] deals with Pseudomonas aeruginosa Walter. The assay is described as above. The assay is classed as cell-based. To be noted: liquid medium, 18 to 20 h at 37°C, read-out: MHK-Werte Pseud. aerug. Walter. The method, then: as §3, §4, §5, §6, §7, §8, §9
Assay [9] concerns Serratia marcescens ATCC 13 880. The description is as above. Format: cell-based. As to conditions: ATCC13, liquid medium, 18 to 20 h at 37°C, read-out: MHK-Werte Serr. marcesc. ATCC 13 880. As for the experimental part:
as §3, §4, §5, §6, §7, §8, §9

Assay [10] deals with Staphylococcus aureus SG 511. Described as above. Format: cell-based. To be noted: SG511, liquid medium, 18 to 20 h at 37°C, read-out: MHK-Werte Staph. aureus SG 511. The method, then: as §3, §4, §5, §6, §7, §8, §9

Here are results for 5 compounds from patent publication EP0051773A1, “Penicillins, their salts, process for their preparation and pharmaceutical compositions containing them” (Dr. Karl Thomae GmbH, priority 1980, dated 1982).

In brackets after ≈: the same amount, converted by molar mass.

As to `CN(C)S(=O)(=O)c1ccc(Nc2ncc(NC(=O)N[C@@H](C(=O)N[C@@H]3C(=O)N4[C@@H]3SC(C)(C)[C@@H]4C(=O)O)c3ccccc3)c(O)n2)cc1` [Verbindung 14], the ED50 (commonly the midpoint of the dose-response relation) in the assay on E.coli ATCC 11 775 was 4.2 mg/kg; in [1], 8.5 mg/kg.
As to `C[S+]([O-])c1ccc(Nc2ncc(NC(=O)NC(C(=O)NC3C(=O)N4C3SC(C)(C)C4C(=O)O)c3ccccc3)c(O)n2)cc1` (centres unmarked) [Verbindung 21], the MIC in assay [2] was found to be 2 µg/mL (≈ 3.13 µM); in [3], 0.25 µg/mL (≈ 0.391 µM); in assay [4], 2 µg/mL (≈ 3.13 µM); in [5], 1 µg/mL (≈ 1.56 µM); in assay [6], 0.12 µg/mL (≈ 0.188 µM); in the assay with Proteus rettgeri BC 7 it was 0.5 µg/mL (≈ 0.782 µM). Also, the MIC in [7] came to 2 µg/mL (≈ 3.13 µM); in assay [8] it was 2 µg/mL (≈ 3.13 µM); in [9], 0.25 µg/mL (≈ 0.391 µM); in assay [10] it was 0.25 µg/mL (≈ 0.391 µM). Further, the ED50 with E.coli ATCC 11 775 came to 3 mg/kg; in [1] it was 6.6 mg/kg.
On to `CC1(C)SC2C(NC(=O)C(NC(=O)Nc3cnc(Nc4ccc(NC(N)=O)cc4)nc3O)c3ccc(O)cc3)C(=O)N2C1C(=O)O` (centres unmarked) [Verbindung 43], for which the MIC came to 4 µg/mL (≈ 6.14 µM) in assay [2]; 0.5 µg/mL (≈ 0.767 µM) in assay [3]; 8 µg/mL (≈ 12.3 µM) in assay [4]; 8 µg/mL (≈ 12.3 µM) in [5]; 0.06 µg/mL (≈ 0.0921 µM) in [6]; 1 µg/mL (≈ 1.53 µM) with Proteus rettgeri BC 7. For the same compound, the MIC in [7] came out at 1 µg/mL (≈ 1.53 µM); in assay [8] it was 1 µg/mL (≈ 1.53 µM); in assay [9], 0.5 µg/mL (≈ 0.767 µM); in assay [10] it was 0.5 µg/mL (≈ 0.767 µM). Further, the ED50 in the assay on E.coli ATCC 11 775 was 5.6 mg/kg.
Regarding `CC1(C)S[C@@H]2[C@H](NC(=O)C(NC(=O)Nc3cnc(Nc4ccc(C(N)=O)c(O)c4)nc3O)c3ccc(O)cc3)C(=O)N2[C@H]1C(=O)O` (some centres unmarked) [Verbindung 50], the MIC in assay [2] was 2 µg/mL (≈ 3.06 µM); in assay [3] it was 0.25 µg/mL (≈ 0.383 µM); in assay [4] it was 2 µg/mL (≈ 3.06 µM); in [5], 2 µg/mL (≈ 3.06 µM); in [6] it was 0.06 µg/mL (≈ 0.0919 µM); with Proteus rettgeri BC 7 it was 0.5 µg/mL (≈ 0.766 µM). The MIC in assay [7] was 1 µg/mL (≈ 1.53 µM); in assay [8] it was 1 µg/mL (≈ 1.53 µM); in assay [9], 0.25 µg/mL (≈ 0.383 µM); in assay [10], 0.5 µg/mL (≈ 0.766 µM). Also, the ED50 with E.coli ATCC 11 775 was determined as 4 mg/kg.
For `CC1(C)S[C@@H]2[C@H](NC(=O)C(NC(=O)Nc3cnc(NCc4ccc(O)cc4)nc3O)c3ccc(O)cc3)C(=O)N2[C@H]1C(=O)O` (some centres unmarked) [Verbindung 57], the MIC in assay [2] was 1 µg/mL (≈ 1.6 µM); in assay [3], 0.25 µg/mL (≈ 0.401 µM); in [4], 4 µg/mL (≈ 6.41 µM); in [5] it was 8 µg/mL (≈ 12.8 µM); in assay [6], 0.06 µg/mL (≈ 0.0962 µM); in the assay with Proteus rettgeri BC 7 it was 0.5 µg/mL (≈ 0.802 µM). The MIC in assay [7] came out at 2 µg/mL (≈ 3.21 µM); in [8], 1 µg/mL (≈ 1.6 µM); in [9], 1 µg/mL (≈ 1.6 µM); in assay [10], 0.25 µg/mL (≈ 0.401 µM). Besides, the ED50 in the assay with E.coli ATCC 11 775 came to 7.2 mg/kg.
